Reference: patent US20240082218A1, “PHARMACEUTICAL COMBINATIONS COMPRISING A KRAS G12C INHIBITOR AND USES OF A KRAS G12C INHIBITOR FOR THE TREATMENT OF CANCERS” (priority 2020, published 2024)
Marks after values point to notes of the source that are not given here.

Legend:
[1] = target: T1, KRASG12C (Homo sapiens, UniProt P01116, G12C); experiment: Cellular target occupancy 6 h; type: cell-based
[2] = target: NRAS WT (Homo sapiens, UniProt P01111); experiment: cRAF recruitment 6 h cellular assay; type: cell-based
NRAS WT, sequence (P01111 whole entry): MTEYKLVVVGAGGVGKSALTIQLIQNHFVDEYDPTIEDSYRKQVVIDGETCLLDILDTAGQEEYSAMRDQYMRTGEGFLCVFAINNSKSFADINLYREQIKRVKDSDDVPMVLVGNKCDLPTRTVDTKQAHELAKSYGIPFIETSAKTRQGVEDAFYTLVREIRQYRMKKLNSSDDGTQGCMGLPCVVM

[3] = tested on: KRAS G12C-mutated cell lines; experiment: Proliferation cellular assay; type: cell-based
[4] = tested on: MEK Q56P mutated cell lines; experiment: Proliferation cellular assay; type: cell-based
[5] = tested on: H358 cancer cells; experiment: Antiproliferation in H358 cancer cells; type: cell-based; conditions: Homo sapiens, NCI-H358
[6] = target: T2, KRAS G12C_H95Q (GDP) (Homo sapiens, UniProt P01116, G12C/H95Q); experiment: Covalent rate constants by RapidFire MS; type: binding; conditions: n=2
T2 construct: the cDNA encoding KRAS, NRAS, and HRAS comprised aa 1-169; made in house; host or cells: E. coli BL21(DE3)
Method: (§1) The E. coli expression constructs used in this study were based on the pET system and generated using standard molecular cloning techniques. […] Point mutations were introduced with the QuikChange Lightning Site-Directed Mutagenesis kit (Agilent). All final expression constructs were sequence verified by Sanger sequencing.
(§2) Cell pellets were resuspended in buffer A (20 mM Tris, 500 mM NaCl, 5 mM imidazole, 2 mM TCEP, 10% glycerol, pH 8.0) supplemented with Turbonuclease (Merck) and cOmplete protease inhibitor tablets (Roche). The cells were lysed by three passages through a homogenizer (Avestin) at 800-1000 bar and the lysate clarified by centrifugation at 40000 g for 40 min. The lysate was loaded onto a HisTrap HP 5 ml column (Cytiva) mounted on an ÅKTA Pure 25 chromatography system (Cytiva). Contaminating proteins were washed away with buffer A and bound protein was eluted with a linear gradient to buffer B (buffer A supplemented with 200 mM imidazole). During dialysis O/N the N-terminal His affinity purification tags on the non-tagged and avi-tagged proteins were cleaved off by TEV or HRV3C protease, respectively. The protein solution was re-loaded onto a HisTrap column and the flow through containing the target protein collected. Guanosine 5′-diphosphate sodium salt (GDP, Sigma) or GppNHp-Tetralithium salt (Jena Bioscience) was added to a 24-32× molar excess over protein. […] After 1 hour at room temperature the buffer was exchanged on a PD-10 desalting column (Cytiva) against 40 mM Tris, 200 mM (NH4)2SO4, 0.1 mM ZnCl2, pH 8.0. […] 40 U Shrimp Alkaline Phosphatase (New England Biolabs) was added to GppNHp containing samples only. The sample was then incubated for 1 hour at 5° C. Finally, MgCl2 was added to a concentration of about 30 mM.
(§3) Reactions were stopped at different time points by addition of formic acid to 1%. […] In parallel, compound solubility was assessed by nephelometry and compound concentrations resulting in measurable turbidity were excluded from curve fitting. […]

[7] = target: T3, KRAS G12C_Y96C (GDP) (Homo sapiens, UniProt P01116, G12C/Y96C); experiment: Covalent rate constants by RapidFire MS; type: binding; conditions: n=2
T3 construct: the cDNA encoding KRAS, NRAS, and HRAS comprised aa 1-169; made in house; host or cells: E. coli BL21(DE3)
Method: as §1, §2, §3

[8] = target: T4, KRAS G12C_Y96D (GDP) (Homo sapiens, UniProt P01116, G12C/Y96D); experiment: Covalent rate constants by RapidFire MS; type: binding; conditions: n=3
T4 construct: the cDNA encoding KRAS, NRAS, and HRAS comprised aa 1-169; made in house; host or cells: E. coli BL21(DE3)
Method: as §1, §2, §3

[9] = tested on: HCC44 xenograft; experiment: Anti-tumor activity in HCC44 xenografts; type: in vivo, mice; conditions: 10, 30 and 100 mg/kg oral daily
[10] = tested on: KYSE410 xenograft; experiment: Anti-tumor activity in KYSE410 (esophageal) xenografts; type: in vivo, mice; conditions: 10, 30 and 100 mg/kg oral daily
[11] = tested on: KRAS G12C-mutated colorectal cancer PDX models; experiment: KRAS G12C-mutated patient-derived xenograft (PDX) models of human colorectal cancer; type: in vivo, mice; conditions: oral; Compound A 100 mg/kg daily alone or with TNO155 10 mg/kg twice daily; one animal per PDX model
Method: Female nude mice were implanted subcutaneously with tumor fragments from each PDX model. Individual mice were assigned to treatment groups for dosing once their tumor volume reached 200-250 mm^3. One animal per PDX model was assigned to each treatment arm. […] The end of study per model was defined as minimum of 28 days treatment, or duration for untreated tumor to reach 1500 mm^3, or duration for two doublings of untreated tumor, whichever was slower. Tumor volumes were recorded and are represented as % tumor volume change f SEM for each group.

[12] = tested on: DUSP6 mRNA transcript; experiment: In vivo DUSP6 mRNA in NCI-H2122 xenografts; conditions: 100 mg/kg QD oral
Method: (§4) KRASG12C inhibition can be assessed by measuring free KRASG12C levels (target occupancy) and other biomarkers in the MAPK signaling pathway, such as decreased levels of phosphorylated ERK1/2 (pERK) and downregulation of DUSP6 mRNA transcript. […] In the less sensitive NCI-H2122 xenografts, orally administered JDQ443 (100 mg/kg QD) achieved approximately 80% KRASG12C inhibition and 90% decrease in DUSP6 mRNA transcript, causing stasis which is the maximum response in this model upon MAPK pathway inhibition.

[13] = 4-week toxicity study; type: in vivo; conditions: rat
[14] = tested on: advanced solid tumors harboring the KRAS G12C mutation; conditions: patients; preliminary data, trial ongoing
Method: The study is conducted in adult patients with advanced solid tumors who harbor the KRAS G12C mutation. In expansion, advanced (metastatic or unresectable) non-small cell lung cancer patients who harbor the KRAS G12C mutation and who are in the second or third line treatment setting will be enrolled.
In particular, it may be administered at a total daily dose of 400 mg, administered once daily or twice daily. It may also be administered at a total daily dose of 200 mg, administered once daily or twice daily.
It may also be administered at a total daily dose of 600 mg, administered once or twice daily.
TNO155 is administered p.o. QD or BID in a 2 week on/1 week off schedule or continuously.
TNO155 may be administered at a total daily dose ranging from 10 to 80 mg, or from 10 to 60 mg. For example, the total daily dose of TNO155 may be selected from 10, 15, 20, 30, 40, 60 and 80 mg. For example, TNO may be dosed at a total daily dose of 10, 15, 20 or 30 mg.
The total daily dose of TNO155 may be administered continuously, QD (once a day) or BID (twice a day) on QD or BID on a 2 weeks on/l week off schedule. The total daily dose of TNO155 may be administered continuously, QD (once a day) or BID (twice a day) on QD or BID on continuously (i.e. without a drug holiday). […]

[15] = target: T1, KRASG12C; experiment: In vitro KRAS G12C target occupancy in H358 cancer cells; type: cell-based; set-up: endogenous in cells; host or cells: H358 (NCI-H358) cancer cells; conditions: read-out: in vitro IC50 for inhibition of KRAS G12C (target occupancy)
Method: as §4

[16] = target: T1, KRASG12C; experiment: KRASG12C target occupancy in LU99 xenografts after 5 days treatment; type: in vivo; set-up: KRASG12C target occupancy was assessed after 5 days treatment of LU99 xenografts; endogenous in cells; host or cells: LU99 tumour xenografts in nude mice; conditions: single-agent 30 mg/kg vs 100 mg/kg

C=CC(=O)N1CC2(CC(n3nc(-c4ccc5c(cnn5C)c4)c(-c4c(Cl)c(C)cc5[nH]ncc45)c3C)C2)C1 (single isomer, unassigned) [Compound A, 1-{6-[(4M)-4-(5-Chloro-6-methyl-1H-indazol-4-yl)-5-methyl-3-(1-methyl-1H-indazol-5-yl)-1H-pyrazol-1-yl]-2-azaspiro[3.3]heptan-2-yl}prop-2-en-1-one]
EC50 [1]: 30 nM | EC50 [2]: > 6000 nM | GI50 [3]: 30 nM | GI50 [4]: 4000 nM | GI50 [5]: 30 nM | Second order rate constant (Kinact/KI) [6]: 9500 M⁻¹ s⁻¹ | Second order rate constant (Kinact/KI) [7]: 650 M⁻¹ s⁻¹ | Second order rate constant (Kinact/KI) [8]: 90 M⁻¹ s⁻¹ | pattern of maximal response [9]: stasis-like | pattern of maximal response [10]: moderate tumor growth inhibition | tumor response in CRC PDX models [11]: regression of one PDX model and to a slight to moderate tumor growth delay in some PDX models | decrease in DUSP6 mRNA transcript [12]: approximately 90% | tolerability in 4-week toxicity study [13]: well tolerated | clinical efficacy [14]: early signs of clinical efficacy | clinical safety and tolerability [14]: acceptable safety and tolerability profile | IC50 [15]: 20 nM | reduction of free KRAS^G12C in tumors [16]: less reduction of free KRAS^G12C
